# Results from ChEMBL document CHEMBL4177652, “Synthesis of 14-deoxy-11,12-didehydroandrographolide analogues as potential cytotoxic agents for cholangiocarcinoma” (Bioorg Med Chem Lett, 2017).
# How the values were obtained:
# P388 = test: Growth inhibition of mouse P388 cells after 72 hrs by SRB assay; assay type: functional; conditions: P388, 72 h, read-out: ED50 (the source's name)
# MCF7 = test: Growth inhibition of human MCF7 cells after 72 hrs by SRB assay; assay type: functional; conditions: MCF7, 72 h, read-out: ED50 (the source's name)
# [1] = Growth inhibition of human KKU-M213 cells after 72 hrs by SRB assay; assay type: functional; conditions: KKU-M213, 72 h, read-out: ED50 (the source's name)
# HuCC-A1 = test: Growth inhibition of human HuCCa1 cells after 72 hrs by SRB assay; assay type: functional; conditions: HuCC-A1, 72 h, read-out: ED50 (the source's name)
# [2] = Growth inhibition of human HEK293 cells after 72 hrs by SRB assay; assay type: cell-based; conditions: read-out: ED50
# HT-29 = test: Growth inhibition of human HT-29 cells after 72 hrs by SRB assay; assay type: functional; conditions: HT-29, 72 h, read-out: ED50 (the source's name)
# [3] = Growth inhibition of rat ASK cells after 72 hrs by SRB assay; assay type: functional; conditions: read-out: ED50 (the source's name)
# KB = test: Growth inhibition of human KB cells after 72 hrs by SRB assay; assay type: functional; conditions: read-out: ED50 (the source's name)
# [4] = Growth inhibition of human KKU100 cells after 72 hrs by SRB assay; assay type: functional; conditions: KKU100, 72 h, read-out: ED50 (the source's name)
# A549 = test: Growth inhibition of human A549 cells after 72 hrs by SRB assay; assay type: functional; conditions: A549, 72 h, read-out: ED50 (the source's name)
EC50 (P388),EC50 (MCF7),EC50 (HT-29),EC50 (KB),EC50 (A549),SMILES,EC50 [1],EC50 (HuCC-A1),GI50 at 72 h [2],EC50 [3],EC50 [4]
> 50 µM,> 50 µM,> 50 µM,> 50 µM,> 50 µM,C[C@]1(CO)[C@H]2CC[C@@]3(CO3)[C@@H](/C=C/C3=CCOC3=O)[C@]2(C)CC[C@H]1O,> 50 µM,> 50 µM,> 50 µM,> 50 µM,> 50 µM
4.13 µM,4.23 µM,4.43 µM,4.02 µM,6.22 µM,CC(C)(C)[Si](OC[C@@]1(C)[C@H]2CC[C@@]3(CO3)[C@@H](/C=C/C3=CCOC3=O)[C@]2(C)CC[C@H]1O)(c1ccccc1)c1ccccc1,3.08 µM,6.41 µM,4.97 µM,6.81 µM,3.27 µM
20 µM,43.5 µM,48.9 µM,> 50 µM,46.3 µM,CC(=O)OC[C@@]1(C)[C@H]2CC[C@@]3(CO3)[C@@H](/C=C/C3=CCOC3=O)[C@]2(C)CC[C@H]1O,48.9 µM,> 50 µM,38.1 µM,> 50 µM,> 50 µM
14.5 µM,7.77 µM,32.5 µM,5.15 µM,9.47 µM,C=C1CC[C@@H]2[C@](C)(CO[Si](c3ccccc3)(c3ccccc3)C(C)(C)C)[C@H](OC(C)=O)CC[C@@]2(C)[C@@H]1/C=C/C1=CCOC1=O,16 µM,24.3 µM,5.57 µM,> 50 µM,> 50 µM
5.51 µM,4.44 µM,6.48 µM,4.45 µM,6.49 µM,C=C1CC[C@@H]2[C@](C)(CO[Si](c3ccccc3)(c3ccccc3)C(C)(C)C)[C@H](O)CC[C@@]2(C)[C@@H]1/C=C/C1=CCOC1=O,5.07 µM,5.53 µM,4.4 µM,7.72 µM,14.7 µM
7.45 µM,16.6 µM,18.6 µM,25.8 µM,24.1 µM,CC(=O)O[C@@H]1CC[C@]2(C)[C@H](CC[C@@]3(CO3)[C@H]2/C=C/C2=CCOC2=O)[C@]1(C)CO[Si](C)(C)C(C)(C)C,19.1 µM,23.4 µM,18.1 µM,22.4 µM,16.4 µM
15.1 µM,8.18 µM,7.24 µM,19.2 µM,9.36 µM,CC(C)(C)[Si](C)(C)OC[C@@]1(C)[C@H]2CC[C@@]3(CO3)[C@@H](/C=C/C3=CCOC3=O)[C@]2(C)CC[C@H]1O,8.57 µM,> 50 µM,6.15 µM,19 µM,9.25 µM
5.28 µM,6.84 µM,6.74 µM,5.12 µM,8.16 µM,CC(=O)O[C@@H]1CC[C@]2(C)[C@H](CC[C@@]3(CO3)[C@H]2/C=C/C2=CCOC2=O)[C@]1(C)COC(c1ccccc1)(c1ccccc1)c1ccccc1,10.2 µM,9.74 µM,5.99 µM,8.29 µM,14.1 µM
3.33 µM,5.38 µM,6.21 µM,4.92 µM,5.88 µM,C[C@]1(COC(c2ccccc2)(c2ccccc2)c2ccccc2)[C@H]2CC[C@@]3(CO3)[C@@H](/C=C/C3=CCOC3=O)[C@]2(C)CC[C@H]1O,4.68 µM,7.81 µM,5.39 µM,6.47 µM,28.8 µM
3.86 µM,4.98 µM,2.28 µM,4.59 µM,6.58 µM,CC(C)[Si](OC[C@@]1(C)[C@H]2CC[C@@]3(CO3)[C@@H](/C=C/C3=CCOC3=O)[C@]2(C)CC[C@H]1O)(C(C)C)C(C)C,3.37 µM,7.35 µM,4.04 µM,6.6 µM,2.93 µM
5.25 µM,6.38 µM,5.22 µM,5.19 µM,8.31 µM,CC(=O)O[C@@H]1CC[C@]2(C)[C@H](CC[C@@]3(CO3)[C@H]2/C=C/C2=CCOC2=O)[C@]1(C)CO[Si](c1ccccc1)(c1ccccc1)C(C)(C)C,5.13 µM,8.08 µM,6.01 µM,8.96 µM,4.5 µM

# Continued, compound first:
SMILES,EC50 (P388),EC50 (MCF7),EC50 (HT-29),EC50 (KB),EC50 (A549),EC50 [1],EC50 (HuCC-A1),GI50 at 72 h [2],EC50 [3],EC50 [4]
C=C1CC[C@@H]2[C@](C)(COC(C)=O)[C@H](O)CC[C@@]2(C)[C@@H]1/C=C/C1=CCOC1=O,27.7 µM,31.1 µM,45 µM,25.7 µM,32.8 µM,> 50 µM,> 50 µM,27.8 µM,> 50 µM,40.2 µM
C=C1CC[C@@H]2[C@](C)(COC(c3ccccc3)(c3ccccc3)c3ccccc3)[C@H](O)CC[C@@]2(C)[C@@H]1/C=C/C1=CCOC1=O,3.87 µM,4.86 µM,8.38 µM,4.94 µM,6.79 µM,5.42 µM,7.78 µM,4.68 µM,7.45 µM,36.2 µM
CC(=O)OC[C@@]1(C)[C@H]2CC[C@@]3(CO3)[C@@H](/C=C/C3=CCOC3=O)[C@]2(C)CC[C@H]1OC(C)=O,> 50 µM,> 50 µM,> 50 µM,> 50 µM,> 50 µM,> 50 µM,> 50 µM,> 50 µM,> 50 µM,> 50 µM
C=C1CC[C@@H]2[C@](C)(COC(c3ccccc3)(c3ccccc3)c3ccccc3)[C@H](OC(C)=O)CC[C@@]2(C)[C@@H]1/C=C/C1=CCOC1=O,12.9 µM,9.12 µM,21.9 µM,6.36 µM,12 µM,9.98 µM,38.6 µM,7.02 µM,39.9 µM,> 50 µM
CC(=O)O[C@@H]1CC[C@]2(C)[C@H](CC[C@@]3(CO3)[C@H]2/C=C/C2=CCOC2=O)[C@]1(C)CO[Si](C(C)C)(C(C)C)C(C)C,7.84 µM,7.84 µM,7.4 µM,8.48 µM,8.65 µM,7.22 µM,8.92 µM,7.39 µM,15.7 µM,17.5 µM
C=C1CC[C@@H]2[C@](C)(CO)[C@H](O)CC[C@@]2(C)[C@@H]1/C=C/C1=CCOC1=O,35 µM,18.7 µM,28.6 µM,5.07 µM,28.2 µM,> 50 µM,35.8 µM,7.53 µM,> 50 µM,36.9 µM
C=C1CC[C@@H]2[C@](C)(CO[Si](C(C)C)(C(C)C)C(C)C)[C@H](O)CC[C@@]2(C)[C@@H]1/C=C/C1=CCOC1=O,5.96 µM,5.46 µM,7.14 µM,4.7 µM,7.95 µM,7.06 µM,6.72 µM,5.28 µM,7.35 µM,18.2 µM
Cc1c2ccncc2c(C)c2c1[nH]c1ccccc12 [ELLIPTECINE],2.12 µM,1.66 µM,2.68 µM,2.34 µM,2.37 µM,4.75 µM,3.46 µM,2.27 µM,2.17 µM,4.16 µM
C=C1CC[C@@H]2[C@](C)(COC(C)=O)[C@H](OC(C)=O)CC[C@@]2(C)[C@@H]1/C=C/C1=CCOC1=O,27.7 µM,28.8 µM,41.9 µM,25.7 µM,34 µM,37.3 µM,40.9 µM,25 µM,42.5 µM,> 50 µM
C=C1CC[C@@H]2[C@](C)(CO[Si](C(C)C)(C(C)C)C(C)C)[C@H](OC(C)=O)CC[C@@]2(C)[C@@H]1/C=C/C1=CCOC1=O,12.1 µM,7.07 µM,17.9 µM,7.17 µM,22 µM,12.6 µM,10.2 µM,8.28 µM,29.4 µM,4.1 µM
C=C1CC[C@@H]2[C@](C)(CO[Si](C)(C)C(C)(C)C)[C@H](O)CC[C@@]2(C)[C@@H]1/C=C/C1=CCOC1=O,8.24 µM,7.61 µM,8.48 µM,5.12 µM,17.2 µM,27.4 µM,18.2 µM,6.61 µM,9.61 µM,3.09 µM
C=C1CC[C@@H]2[C@](C)(CO[Si](C)(C)C(C)(C)C)[C@H](OC(C)=O)CC[C@@]2(C)[C@@H]1/C=C/C1=CCOC1=O,6.56 µM,6.37 µM,12.8 µM,4.94 µM,9.18 µM,12.1 µM,16 µM,6.36 µM,16.2 µM,14 µM
